According to article PMC7730206, “2-Deoxy-D-glucose Promotes Buforin IIb-Induced Cytotoxicity in Prostate Cancer DU145 Cells and Xenograft Tumors” (Molecules, 2020):
“Also recorded” adds a separate entry of the source.

Experiments:
[1] = system: DU145 cells; assay: Annexin V-FITC/PI apoptosis flow cytometry; format: cell-based, human; conditions: 2-DG alone (2 mM) compared with PBS control
Experimental: DU145 cells were seeded (3 × 10^5 cells/mL) into 6-well plates and treated with buforin IIb (2 μM) and 2-DG (2 mM) alone and in combination for 24 h. After collecting and washing with PBS, the cells were re-suspended in 500 μL of binding buffer, stained with FITC-conjugated Annexin V and PI, and incubated on ice in the dark for 10 min. The stained cells were analyzed by flow cytometry, and the percentage of apoptotic cells was calculated using Cell Quest software.

[2] = system: DU145 cells; assay: Intracellular ATP level; format: cell-based, human; conditions: Homo sapiens, DU-145, 2 mM 2-DG 24 h, 2 μM buforin IIb 12 h, read-out: ATP levels, % of control levels
Experimental: (§1) Cells were seeded at approximately 3 × 10^5 cells/mL in 6-well plates and treated with 2-DG (2 mM) alone for 24 h and buforin IIb alone (2 μM) or both for 12 h. After centrifugation, the culture medium and cells were collected to estimate the L-lactate and ATP content using the ATP content assay kit (Solarbio, Beijing, China) and L-lactate assay kit (Jiancheng Bioengineering, Nanjing, China) according to the manufacturer’s protocol. […] The collected cells were subjected to ultrasonic disruption and centrifuged at 8000× g for 10 min at 4 °C to collect the supernatant for intracellular ATP detection. Creatine kinase catalyzes the production of phosphocreatine from creatine and ATP. The level of ATP was determined by detecting the phosphocreatine content though the colorimetric method of phosphomolybdic acid at 700 nm. Six replicates were performed for each group, and the experiments were repeated three times to confirm the results.

[3] = system: prostate cancer cell line DU145; assay: CCK-8 cell viability assay, DU145; format: cell-based, human
Experimental: Cells were seeded in 96-well plates at a density of 1 × 10^5 cells/mL in medium, and then treated with different concentrations of buforin IIb and 2-DG alone or in combination for 24 h. After treatment, 10 μL CCK-8 was added to each well, and the plates were incubated in the dark at 37 °C for 2 h. Absorbance at 450 nm was measured using a […]1 multifunction microplate reader. Each experiment was performed in triplicate, and cell viability was expressed as a percentage of the control. The drug-drug interactions between buforin IIb and 2-DG were evaluated using the combination index (CI) described by Chou and Talalay, and calculated using Compusyn software (Biosoft). CI values < 1, = 1 or > 1 indicated synergy, additivity, or antagonism, respectively.

[4] = system: Bcl-2, Bak, Bax, cytochrome c, caspase 3 in DU145 cells; assay: Western blot of apoptosis-related proteins; format: cell-based, human; conditions: 2 mM 2-DG 12 h and/or 2 μM buforin IIb 12 h
Experimental: DU145 cells were treated with 2-DG (2 mM) for 12 h, then treated with or without buforin IIb (2 μM) for 12 h. The cells were lysed on ice for 30 min in RIPA lysis buffer, and the lysates were centrifuged at 12,000× g for 10 min at 4 °C. The supernatant was collected, separated by 12% sodium dodecyl sulfate-polyacrylamide gel electrophoresis (SDS-PAGE), and transferred onto a polyvinylidene difluoride (PVDF) membrane. After blocking with 5% skim milk in PBS, the PVDF membrane incubated with primary antibodies against Bcl-2, Bak, Bax, cytochrome C, caspase 3, and β-actin overnight at 4 °C, followed by incubating with appropriate secondary antibodies. After washing, bands were visualized by using ECL detection system according to the manufacturer’s instructions.

[5] = system: DU145 cells; assay: Cell cycle analysis (PI staining, FACS); format: cell-based, human; conditions: 2-DG 2 mM, buforin IIb 2 μM, alone or in combination, 24 h
Experimental: Cell cycle analysis was performed using the Cell Cycle Analysis Kit. Briefly, cells were seeded into 6-well culture plates at a density of 3 × 10^5 cells/mL. After treatment with 2-DG (2 mM) and buforin IIb (2 μM) alone or in combination for 24 h, cells were digested by 0.25% trypsin without EDTA, fixed in 70% cold ethanol for 5 h at 4 °C, and then stained with propidium iodide (PI) and RNase A solution for 30 min at 37 °C in the dark. The cell distribution across the cell cycle was analyzed with a FACS Vantage SE flow cytometer.

[6] = system: prostate cancer cell line DU145; conditions: 1 mM 2-DG alone; ref 28 (Sahra et al. 2010); cited from earlier work
Source text: Glycolysis inhibitors have been studied extensively in recent years as a group of compounds with a potential anticancer activity. This is associated with increasing knowledge of metabolic disorders in cancer cells. One difference between cancer cells and normal cells is that the metabolism of cancer cells is reprogrammed to generate energy from aerobic glycolysis instead of oxidative phosphorylation, which affects mitochondrial function. One effective anticancer strategy is to combine mitochondrial and antiglycolytic drugs with different molecular targets, which may elicit synergistic e ...

[7] = system: DU145 cells; assay: L-lactate production; format: cell-based, human; conditions: 2 mM 2-DG 24 h; 2 μM buforin IIb 12 h; combination: 2-DG pretreatment 12 h then buforin IIb 12 h; lactate in medium
Experimental: as §1

[8] = system: DU145 cells; assay: EdU incorporation assay (cell proliferation); format: cell-based, human; conditions: Homo sapiens, DU-145, 2-DG 2 mM, buforin IIb 2 μM, alone or in combination, 24 h, read-out: inhibition of cell proliferation (rate)
Experimental: Cultured cells were plated in 12-well plates at a density of 2 × 10^5 cells/mL and treated with buforin IIb (2 μM) and 2-DG (2 mM) alone and in combination for 24 h. Cells were then incubated with in medium containing EdU (10 μM) for 2 h, fixed with 4% paraformaldehyde for 15 min, and permeabilized with 0.2% Triton X-100 for 15 min. Cells were then incubated with EdU staining cocktail at room temperature in the dark for 30 min. After washing with PBS, cell nuclei were stained with DAPI at a concentration of 10 μg/mL for 15 min. More than five images of each well were acquired by fluorescence microscope, and the percentage of EdU-positive cells was evaluated.

[9] = system: DU145 cells; assay: Mitochondrial membrane potential (JC-1, flow cytometry); format: cell-based, human
Experimental: The JC-1 Assay Kit was used to measure changes in mitochondrial membrane potential. Briefly, cells (5 × 10^5 cells/mL) were seeded into 6-well plates and treated with 2-DG (2 mM) for 12 h, then treated with or without buforin IIb (2 μM) for 12 h. DU145 cells were collected, washed in PBS, and incubated with 10 μg/mL JC-1 for 30 min. The cells were then collected by centrifugation and analyzed by flow cytometry. The red fluorescence indicated JC-1 aggregates, whereas green fluorescence indicated JC-1 monomers. Aggregated JC-1 (red fluorescence) indicates a high membrane potential, whereas monomer JC-1 (green fluorescence) indicates a membrane collapse.

In the case of `O=CC[C@@H](O)[C@H](O)[C@H](O)CO` [2-DG, 2-Deoxy-D-glucose], the “induction of apoptosis” value [1] is reported as “did not induce DU145 cell apoptosis”, the activity at 2000 µM [2] is reported as 70% and the “effect on DU145 cell viability / growth” value ([3]; 2 mM 2-DG alone) is reported as “did not inhibit DU145 cell growth significantly; also recorded: no significant effect on cell viability and apoptosis”. For the same compound, the IC50 ([3]; Homo sapiens, DU-145, CCK8 assay, 24 h, data not shown) was 12 mM, the “Bcl-2 family protein levels” value [4] was “downregulated Bcl-2 and upregulated Bak” and the “cytochrome c and caspase 3” value [4] was “did not promote the release of cytochrome c from mitochondria or activate caspase 3”. For the same compound, the “%G2” value ([5]; PBS 8.15) was 7.2%, the “%S” value ([5]; PBS 38.08) was 28.05% and the S/G2 population ([5]; PBS control 46.23%) was 35.25%. The “G0/G1 population (%G1)” value ([5]; PBS control 53.7%) was 64.76%, the “effect on cell viability and apoptosis in DU145 cells” value [6] was “almost no effect on cell viability and apoptosis” and the “lactate production, % of that in the control” value [7] was “approximately 60%”. The inhibition at 2000 µM [8] was 14%, the “effect on Δψm (JC-1 green/red fluorescence ratio, words)” value ([9]; 2 mM 2-DG, 2 μM buforin IIb 12 h) was “no effect on Δψm” and the “effect on mitochondrial Δψm and ROS production” value ([9]; 2-DG (2 mM) alone) was “no effect on mitochondrial Δψm and ROS production”.
